Assay results from PubChem BioAssay AID248 (DTP/NCI, 2004).
Several values for one entry are separate records, joined by “and”; a condition that tells them apart may be missing. Identical values can stand only once. Inconclusive results and toxic doses are left out.

Test system: L1210 leukemia ip in BDF1 mice, survival T/C
Assay: NCI In Vivo Anticancer Drug Screen. Data for tumor model L1210 Leukemia (intraperitoneal) in B6D2F1 (BDF1) mice
Details: endpoint: mean survival time, higher = longer survival
In short: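 Transplantable tumor model; survival measured in treated vs vehicle control mice. Value = treated/control.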

Compound: NC(=S)N/N=C/c1ccccn1
- T/C (dose: 0.48 mg/kg/injection, schedule: Q01DX009 (ip), vehicle: saline with Tween-80): 97 % of control and 115 % of control
- T/C (dose: 0.9 mg/kg/injection, schedule: Q04DX002 (ip), vehicle: saline with Tween-80): 100 % of control and 107 % of control
- T/C (dose: 0.95 mg/kg/injection, schedule: Q01DX009 (ip), vehicle: saline with Tween-80): 106 % of control and 115 % of control
- T/C (dose: 1.0 mg/kg/injection, schedule: Q03HX032 (ip), vehicle: other): 117 % of control
- T/C (dose: 1.3 mg/kg/injection, schedule: Q01DX Z (ip), vehicle: carboxymethylcellulose (CMC)): 118 % of control
- T/C (dose: 1.8 mg/kg/injection, schedule: Q03HX024 (ip), vehicle: carboxymethylcellulose (CMC)): 92 % of control
- T/C (dose: 1.8 mg/kg/injection, schedule: Q03HX024 (ip), vehicle: other): 111 % of control
- T/C (dose: 1.8 mg/kg/injection, schedule: Q04DX002 (ip), vehicle: saline with Tween-80): 106 % of control and 110 % of control
- T/C (dose: 1.9 mg/kg/injection, schedule: Q01DX009 (ip), vehicle: saline with Tween-80): 113 % of control and 121 % of control
- T/C (dose: 2.6 mg/kg/injection, schedule: Q03HX032 (ip), vehicle: other): 213 % of control
- T/C (dose: 3.0 mg/kg/injection, schedule: Q01DX015 (ip), vehicle: saline): 105 % of control
- T/C (dose: 3.0 mg/kg/injection, schedule: Q03HX032 (ip), vehicle: other): 168 % of control
- T/C (dose: 3.5 mg/kg/injection, schedule: Q03HX008 (ip), vehicle: other): 164 % of control
- T/C (dose: 3.5 mg/kg/injection, schedule: Q03HX016 (ip), vehicle: other): 192 % of control
- T/C (dose: 3.5 mg/kg/injection, schedule: Q03HX024 (ip), vehicle: other): 368 % of control
- T/C (dose: 3.5 mg/kg/injection, schedule: Q04DX002 (ip), vehicle: saline with Tween-80): 104 % of control and 91 % of control
- T/C (dose: 3.8 mg/kg/injection, schedule: Q01DX009 (ip), vehicle: saline with Tween-80): 121 % of control
- T/C (dose: 4.0 mg/kg/injection, schedule: Q03HX024 (ip), vehicle: carboxymethylcellulose (CMC)): 197 % of control
- T/C (dose: 4.0 mg/kg/injection, schedule: Q03HX024 (ip), vehicle: other): 337 % of control
- T/C (dose: 4.0 mg/kg/injection, schedule: Q03HX024 (ip), vehicle: saline with Tween-80): 345 % of control
- T/C (dose: 4.4 mg/kg/injection, schedule: Q01DX009 (ip), vehicle: saline): 114 % of control
- T/C (dose: 4.4 mg/kg/injection, schedule: Q02DX010 (ip), vehicle: carboxymethylcellulose (CMC)): 114 % of control
- T/C (dose: 5.0 mg/kg/injection, schedule: Q01DX015 (ip), vehicle: saline): 103 % of control
- T/C (dose: 5.0 mg/kg/injection, schedule: Q03HX008 (ip), vehicle: other): 175 % of control
- T/C (dose: 5.0 mg/kg/injection, schedule: Q03HX016 (ip), vehicle: other): 261 % of control
- T/C (dose: 5.0 mg/kg/injection, schedule: Q03HX024 (ip), vehicle: other): 526 % of control
- T/C (dose: 5.0 mg/kg/injection, schedule: Q03HX032 (ip), vehicle: other): 420 % of control
- T/C (dose: 5.0 mg/kg/injection, schedule: Q04DX003 (ip), vehicle: other): 105 % of control
- T/C (dose: 5.0 mg/kg/injection, schedule: Q04DX003 (ip), vehicle: saline with Tween-80): 116 % of control
- T/C (dose: 5.0 mg/kg/injection, schedule: Q08DX002 (ip), vehicle: other): 102 % of control
- T/C (dose: 6.0 mg/kg/injection, schedule: Q03HX024 (ip), vehicle: saline with Tween-80): 376 % of control
- T/C (dose: 6.6 mg/kg/injection, schedule: Q02DX010 (ip), vehicle: carboxymethylcellulose (CMC)): 121 % of control
- T/C (dose: 6.7 mg/kg/injection, schedule: Q01DX015 (ip), vehicle: other): 169 % of control
- T/C (dose: 6.7 mg/kg/injection, schedule: Q02DX010 (ip), vehicle: carboxymethylcellulose (CMC)): 114 % of control
- T/C (dose: 7.0 mg/kg/injection, schedule: Q01DX015 (ip), vehicle: saline): 152 % of control
- T/C (dose: 7.0 mg/kg/injection, schedule: Q04DX002 (ip), vehicle: saline with Tween-80): 107 % of control and 116 % of control
- T/C (dose: 7.5 mg/kg/injection, schedule: Q03HX032 (ip), vehicle: other): 150 % of control
- T/C (dose: 8.0 mg/kg/injection, schedule: Q04DX003 (ip), vehicle: other): 101 % of control
- T/C (dose: 8.0 mg/kg/injection, schedule: Q08DX002 (ip), vehicle: other): 104 % of control
- T/C (dose: 10.0 mg/kg/injection, schedule: Q01DX009 (ip), vehicle: other): 155 % of control
- T/C (dose: 10.0 mg/kg/injection, schedule: Q01DX009 (ip), vehicle: saline): 114 % of control
- T/C (dose: 10.0 mg/kg/injection, schedule: Q01DX015 (ip), vehicle: other): 164 % of control
- T/C (dose: 10.0 mg/kg/injection, schedule: Q02DX010 (ip), vehicle: carboxymethylcellulose (CMC)): 120 % of control
- T/C (dose: 10.0 mg/kg/injection, schedule: Q04DX003 (ip), vehicle: saline with Tween-80): 114 % of control
- T/C (dose: 10.7 mg/kg/injection, schedule: Q01DX Z (ip), vehicle: carboxymethylcellulose (CMC)): 116 % of control
- T/C (dose: 11.0 mg/kg/injection, schedule: Q01DX015 (ip), vehicle: saline): 116 % of control
- T/C (dose: 12.0 mg/kg/injection, schedule: Q04DX003 (ip), vehicle: other): 107 % of control
- T/C (dose: 12.0 mg/kg/injection, schedule: Q08DX002 (ip), vehicle: other): 100 % of control
- T/C (dose: 14.0 mg/kg/injection, schedule: Q04DX002 (ip), vehicle: saline with Tween-80): 110 % of control and 112 % of control
- T/C (dose: 14.5 mg/kg/injection, schedule: Q01DX001 (ip), vehicle: other): 105 % of control
- T/C (dose: 15.0 mg/kg/injection, schedule: Q01DX009 (ip), vehicle: other): 159 % of control
- T/C (dose: 15.0 mg/kg/injection, schedule: Q02DX010 (ip), vehicle: carboxymethylcellulose (CMC)): 120 % of control and 121 % of control (2×)
- T/C (dose: 17.0 mg/kg/injection, schedule: Q01DX015 (ip), vehicle: saline): 104 % of control
- T/C (dose: 18.0 mg/kg/injection, schedule: Q04DX003 (ip), vehicle: other): 112 % of control
- T/C (dose: 18.0 mg/kg/injection, schedule: Q08DX002 (ip), vehicle: other): 97 % of control
- T/C (dose: 20.0 mg/kg/injection, schedule: Q04DX003 (ip), vehicle: saline with Tween-80): 109 % of control
- T/C (dose: 22.0 mg/kg/injection, schedule: Q01DX001 (ip), vehicle: other): 101 % of control and 114 % of control
- T/C (dose: 22.5 mg/kg/injection, schedule: Q02DX010 (ip), vehicle: carboxymethylcellulose (CMC)): 109 % of control and 90 % of control
- T/C (dose: 25.0 mg/kg/injection, schedule: Q01DX015 (ip), vehicle: saline): 90 % of control
- T/C (dose: 27.0 mg/kg/injection, schedule: Q04DX003 (ip), vehicle: other): 104 % of control
- T/C (dose: 27.0 mg/kg/injection, schedule: Q08DX002 (ip), vehicle: other): 95 % of control
- T/C (dose: 28.0 mg/kg/injection, schedule: Q04DX002 (ip), vehicle: saline with Tween-80): 104 % of control and 107 % of control
- T/C (dose: 30.0 mg/kg/injection, schedule: Q01DX009 (ip), vehicle: saline with Tween-80): 90 % of control
- T/C (dose: 33.0 mg/kg/injection, schedule: Q01DX001 (ip), vehicle: other): 105 % of control and 112 % of control
- T/C (dose: 34.0 mg/kg/injection, schedule: Q02DX010 (ip), vehicle: carboxymethylcellulose (CMC)): 73 % of control and 89 % of control
- T/C (dose: 50.0 mg/kg/injection, schedule: Q01DX001 (ip), vehicle: other): 104 % of control

Compound: COc1ccc(Cl)cc1/C=C/C=O
- T/C (dose: 100.0 mg/kg/injection, schedule: Q01DX001 (ip), vehicle: saline): 91 % of control
- T/C (dose: 200.0 mg/kg/injection, schedule: Q01DX001 (ip), vehicle: saline): 92 % of control
- T/C (dose: 400.0 mg/kg/injection, schedule: Q01DX001 (ip), vehicle: saline): 102 % of control
